In patent US12351565B2, “Aromatic compound and preparation method therefor and use thereof” (SHANGHAI JIANHE PHARMACEUTICAL & TECHNOLOGY CO. LTD., priority 2018, dated 2025):
Counter-ions that a name gives are not always drawn. Like-named read-outs stand apart in the source and are kept apart here.

What was measured:
[1] = tested on: C57 mice; test: Forced swimming experiment, intraperitoneal administration to mice; assay type: in vivo; details: for inhibition in vivo at 10 mg/kg: Mus musculus, ip
Experimental: The forced-swimming test is currently the most widely used classic method to evaluate the antidepressant effects of compounds in rodents. […] The time in immobile state of experimental animal is observed and recorded, which can be used to evaluate the effect of antidepressant compounds.
1 h and 24 h after a single intraperitoneal administration of 10 mg/kg, forced swimming tests were respectively carried out to investigate the effects of different compounds on depression-like behaviors of C57 mice.
(§1) Experimental animals were 6-week aged C57 mice, male, and C57 mice were purchased from Shanghai SLAC Laboratory Animal Co., Ltd., with a body weight of 20.45±0.19 g. Before the experiment, they arrived at the Animal Feeding Center of Shanghai Institute of Materia Medica, Chinese Academy of Sciences (Animal Production License: SCXK9[Shanghai]2004-0002, usage license: SYXK[Shanghai]2003-0029), and adapted for 3 days or more in animal facilities. They were bred at 6 animals/cage. The breeding environment was room temperature 23±0.2° C., with 12/12 hours alternation of day and night. Before the behavioral test, the animals should be moved to the behavioral test operation room 2 hours in advance to adapt to the environment and reduce their tension.
Preparation of the test product: each test compound was accurately weighed and dissolved in 0.9% NaCl solution, mixed thoroughly, and prepared as a 1 mg/ml solution, set aside.
(§2) 24 hours before the administration, the mice were placed in a cylindrical tank to adapt to the aquatic environment for 10 min. On the day of the behavioral test, the animals were respectively administered intraperitoneally once at 1 h and 24 h before the behavioral test. The mice were placed individually into a cylindrical glass tank with a height of 30 cm and a diameter of 20 cm. The water depth in the tank was 15 cm, so that the animals could not escape from the glass tank and their feet and tails could not touch the bottom of the tank, the water temperature was 23° C.-25° C. A 6 minute video was taken after the mouse entered into water. Since most animals were very active in the first two minutes, the immobility time in the following 4 minute were calculated (criterion of immobility: the mouse stops struggling in the water, stays still and has small limbs movement to maintain balance or to keep a floating state).
(§3) The antidepressant effect of a compound was evaluated by the ability of the compound to reduce the immobility time of the animal in the forced swimming test as compared with the blank group. The shorter the immobility time of the animal to be tested, the higher the inhibition rate and the stronger the antidepressant activity. Inhibition rate1 h(%)=immobility time(blank, 1 h)−immobility time(administration, 1 h)/immobility time(blank, 1 h)×100% Inhibition rate24 h(%)=immobility time(blank, 24 h)−immobility time(administration, 24 h)/immobility time(blank, 24 h)×100%

[2] = tested on: C57 mice; test: Forced swimming experiment, oral administration to mice; assay type: in vivo; details: for 1 h inhibition rate / 24 h inhibition rate: inhibition of immobility time, C57 mice; for 1 h inhibition rate: forced swimming 1 h after single oral (intragastric) 20 mg/kg; for 24 h inhibition rate: forced swimming 24 h after single oral (intragastric) 20 mg/kg
Experimental: 1 h and 24 h after a single oral administration of 20 mg/kg, forced swimming experiments were then carried out to investigate the effects of different compounds on depression-like behavior in C57 mice.
as §1, with “male,” for “male, and”
Preparation of the test product: each test compound was accurately weighed and dissolved in 0.9% NaCl solution, mixed thoroughly, and prepared into 1 mg/ml and 2 mg/ml solutions respectively, and set aside.
as §2, with “intragastrically” for “intraperitoneally”
as §3, with “group.” for “group. The shorter the immobility time of the animal to be tested, the higher the inhibition rate and the stronger the antidepressant activity.”, “rate24h(%)=immobility” for “rate24 h(%)=immobility”

[3] = 1 h, read-out: 1 h inhibition rate
[4] = 24 h, read-out: 24 h inhibition rate

Row | SMILES | inhibition in vivo at 10 mg/kg [1, 3] | inhibition in vivo at 10 mg/kg [1, 4] | 1 h inhibition rate [2] | 24 h inhibition rate [2] | other results
1 | Cl.NC1(c2cc(F)ccc2F)CCCC(O)C1=O (stereo not shown) [Comparative compound 1, reference compound] | 17.4% | 10.6% | – | – | 1 h inhibition rate ([1]; inhibition of immobility time, forced swimming 1 h after single intraperitoneal 10 mg/kg, C57 mice): 17.4 ± 0.2%; 24 h inhibition rate ([1]; inhibition of immobility time, forced swimming 24 h after single intraperitoneal 10 mg/kg, C57 mice): 10.6 ± 1.2%
2 | CNC1(c2cccc(OC(F)(F)F)c2)CCCC(O)C1=O (stereo not shown) [Compound 39, 6-hydroxy-2-methylamino-2-(3-trifluoromethoxyphenyl)cyclohexane-1-one hydrochloride] | 46.6 ± 1% | 49.1 ± 3.7% | – | – | –
3 | N#Cc1cccc(C2(N)CCCC(O)C2=O)c1 (stereo not shown) [Compound 53, 3-(1-amino-3-hydroxy-2-oxocyclohexane)benzonitrile trifluoroacetate] | 50.9 ± 2% | 39.6 ± 3.2% | – | – | –
4 | Cl.NC1(c2cccc(OC(F)(F)F)c2F)CCCC(O)C1=O (stereo not shown) [Compound 59, 2-amino-2-(2-fluoro-3-(trifluoromethoxy)phenyl)-6-hydroxycyclohexane-1-one hydrochloride] | 32 ± 2.2% | 40.3 ± 4.9% | 28.6 ± 1.8% | 36.1 ± 1.6% | –
5 | Cl.N[C@]1(c2cccc(OC(F)(F)F)c2F)CCC[C@H](O)C1=O [Compound 65, (2S,6S)-2-amino-2-(2-fluoro-3-(trifluoromethoxy)phenyl)-6-hydroxycyclohexane-1-one hydrochloride] | – | – | 23.8 ± 0.6% | 32.0 ± 2.9% | –
6 | NC1(c2c(F)ccc(F)c2F)CCCC(O)C1=O (stereo not shown) [Compound 71, 2-amino-6-hydroxy-2-(2,3,6-trifluorophenyl)cyclohexane-1-one hydrochloride] | 24.2 ± 4.7% | 57.4 ± 4.4% | – | – | –
7 | CNCCC(Oc1ccc(C(F)(F)F)cc1)c1ccccc1 (stereo not shown) [Fluoxetine, fluoxetine, reference compound] | – | – | 2.2 ± 1.2% | 1.8 ± 1.3% | antidepressant effect in the forced swimming experiment ([1]; 1 hour and 24 hours, intraperitoneal 10 mg/kg, in words): no obvious antidepressant effect; inhibition in vivo at 10 mg/kg ([1]; inhibition of immobility time, forced swimming 1 h after single intraperitoneal 10 mg/kg, C57 mice, read-out: 1 h inhibition rate): -4.6 ± 2.3%; inhibition in vivo at 10 mg/kg ([1]; inhibition of immobility time, forced swimming 24 h after single intraperitoneal 10 mg/kg, C57 mice, read-out: 24 h inhibition rate): 4.6 ± 1.8%; antidepressant effect in the forced swimming experiment ([2]; 1 hour and 24 hours, oral administration, in words): no antidepressant effect was shown
